Measurements reported in article PMC7442650, “A machine learning-based chemoproteomic approach to identify drug targets and binding sites in complex proteomes” (Nature Communications, 2020).
Like-named read-outs stand apart in the source and are kept apart here.

How the values were obtained:
[1] = test system: PP2A/B (PPP2CA;PPP2CB); test: LiP-Quant, HeLa lysate; assay type: binding, human
[2] = test system: PP1; test: LiP-Quant, HeLa lysate; assay type: binding, human; conditions: 16 peptides, read-out: median EC50 across LiP-Quant peptides
Excerpt: Next, we focused on kinases and phosphatases as drug targets of particular pharmacological interest, given their frequent dysregulation in disease, particularly in cancer. One common issue with these classes of targets is their variable selectivity, as some of these drugs have more than one protein target in the cell, and frequently bind them with different affinities, thus it is important to characterize these subtle differences to determine the specific modes of actions.

[3] = target: PPP1CA (Homo sapiens, UniProt P62136); test: LiP-Quant, HeLa lysate; assay type: binding; conditions: peptide […]
[4] = target: PPP3CA (Homo sapiens, UniProt Q08209); test: LiP-Quant, HeLa lysate; assay type: binding; conditions: peptide SDDELGSEEDGFDGATAAAR
[5] = test system: PP2A and PP1; conditions: cited from earlier work
[6] = target: FKBP1A (Homo sapiens, UniProt P62942)
[7] = target: T1, ARI1 (Saccharomyces cerevisiae, UniProt P53111); test: LiP-Quant, S. cerevisiae lysates; assay type: binding; conditions: wild type yeast lysate
T1 construct: Cell lysates from at least three independent biological replicates were aliquoted in equivalent volumes containing 100 µg of proteome sample; endogenous in cells; host or cells: S. cerevisiae (Euroscarf strains), cryo-milled lysate
Description: (§1) To discriminate between these two cases, the same LiP-Quant experiment was performed with lysates where TOR signaling was impaired via a mutation in the tor1 gene and a deletion of the fpr1 gene (tor1-1 Δfpr1)[20].
(§2) Saccharomyces cerevisiae: Cell lysates from at least three independent biological replicates were aliquoted in equivalent volumes containing 100 µg of proteome sample and incubated for 10 min at 25 °C with the drug of interest. […] Samples were then heated again at 98 °C for 3 min in a thermocycler. These samples were then subjected to complete digestion in denaturing conditions as described below.

[8] = target: T2, SYEC (Saccharomyces cerevisiae, UniProt P46655); test: LiP-Quant, S. cerevisiae lysates; assay type: binding; conditions: wild type yeast lysate
T2 construct: Cell lysates from at least three independent biological replicates were aliquoted in equivalent volumes containing 100 µg of proteome sample; endogenous in cells; host or cells: S. cerevisiae (Euroscarf strains), cryo-milled lysate
Description: as §1, §2

[9] = target: T3, FPR1 (FK506-binding protein 1, P20081) (Saccharomyces cerevisiae, UniProt P20081); test: LiP-Quant, S. cerevisiae lysates (wild type); conditions: Yeast WT; for EC50: EC50 (nM)
T3 construct: Cell lysates from at least three independent biological replicates were aliquoted in equivalent volumes containing 100 µg of proteome sample; endogenous in cells; host or cells: S. cerevisiae wild type (Euroscarf), cryo-milled lysate
T3 sequence (P20081 1-114): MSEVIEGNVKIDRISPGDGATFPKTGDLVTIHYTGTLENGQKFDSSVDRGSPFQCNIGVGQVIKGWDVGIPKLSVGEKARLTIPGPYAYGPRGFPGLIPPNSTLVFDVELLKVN

[10] = target: MAPK2K1 (MAP2K1) (Homo sapiens, UniProt Q02750); test: LiP-Quant, HeLa lysate; assay type: binding
[11] = target: PLEC (Plectin) (Homo sapiens, UniProt Q15149); test: LiP-Quant, HeLa lysate; assay type: binding; conditions: peptide QRAEAER
[12] = target: T4, NQO2 (Homo sapiens, UniProt P16083); test: LiP-Quant, HeLa lysate; assay type: binding; conditions: peptide EEPIPCTAHWHFGQ
T4 sequence (P16083 1-231): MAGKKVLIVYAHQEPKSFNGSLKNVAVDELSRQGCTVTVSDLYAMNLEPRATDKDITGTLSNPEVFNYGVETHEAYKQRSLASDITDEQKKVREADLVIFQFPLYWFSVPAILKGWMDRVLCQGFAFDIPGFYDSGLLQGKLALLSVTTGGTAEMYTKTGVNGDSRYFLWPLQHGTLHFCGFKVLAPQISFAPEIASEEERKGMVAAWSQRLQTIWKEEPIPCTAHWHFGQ

[13] = target: T5, LIN7C (Homo sapiens, UniProt Q9NUP9); test: LiP-Quant, HeLa lysate; assay type: binding; conditions: peptide AASEGHSHPR
T5 sequence (Q9NUP9 1-197): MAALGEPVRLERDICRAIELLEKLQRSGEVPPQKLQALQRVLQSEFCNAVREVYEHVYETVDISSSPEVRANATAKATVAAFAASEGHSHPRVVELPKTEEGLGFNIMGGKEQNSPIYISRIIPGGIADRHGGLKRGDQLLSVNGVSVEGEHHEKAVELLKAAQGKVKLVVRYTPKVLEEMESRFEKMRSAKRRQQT

[14] = target: XPO1 (Exportin-1) (Homo sapiens, UniProt O14980); test: LiP-Quant, HeLa lysate; assay type: binding; conditions: peptide NQCEGIKK
[15] = test system: MAPK2K1; parameters: method as in PMID 29191878; conditions: read-out: EC50 measured with alternative methods; cited from earlier work
[16] = target: ATP1A1 (Sodium/potassium-transporting ATPase subunit alpha-1) (Homo sapiens, UniProt P05023); test: LiP-Quant, membrane enriched HeLa eluate
Description: (§3) HeLa cells were lysed as above (lysate) however 0.3% n-dodecyl-β-D-maltoside (DDM) was added prior to lysis. […] Beads were then centrifuged at 300g for 30 s to pellet and the supernatant was aspirated. Beads were then washed six times (300g, 30 s between washes) and finally eluted in 400 µl of 0.5 M N-acetyl glucosamine (in LiP buffer without detergent) at 4 °C for 30 min. Beads were pelleted at 300g for 30 s and eluate was collected and protein was quantified by BCA test. LiP-Quant assay was performed with membrane enriched eluate in the same manner as described for standard HeLa lysate.

[17] = target: LDLR (Low-density lipoprotein receptor) (Homo sapiens, UniProt P01130); test: LiP-Quant, membrane enriched HeLa eluate
Description: as §3

[18] = target: T6, RBM27 (RNA-binding protein 27) (Homo sapiens, UniProt Q9P2N5); test: LiP-Quant, membrane enriched HeLa eluate
T6 sequence (Q9P2N5 1-1060): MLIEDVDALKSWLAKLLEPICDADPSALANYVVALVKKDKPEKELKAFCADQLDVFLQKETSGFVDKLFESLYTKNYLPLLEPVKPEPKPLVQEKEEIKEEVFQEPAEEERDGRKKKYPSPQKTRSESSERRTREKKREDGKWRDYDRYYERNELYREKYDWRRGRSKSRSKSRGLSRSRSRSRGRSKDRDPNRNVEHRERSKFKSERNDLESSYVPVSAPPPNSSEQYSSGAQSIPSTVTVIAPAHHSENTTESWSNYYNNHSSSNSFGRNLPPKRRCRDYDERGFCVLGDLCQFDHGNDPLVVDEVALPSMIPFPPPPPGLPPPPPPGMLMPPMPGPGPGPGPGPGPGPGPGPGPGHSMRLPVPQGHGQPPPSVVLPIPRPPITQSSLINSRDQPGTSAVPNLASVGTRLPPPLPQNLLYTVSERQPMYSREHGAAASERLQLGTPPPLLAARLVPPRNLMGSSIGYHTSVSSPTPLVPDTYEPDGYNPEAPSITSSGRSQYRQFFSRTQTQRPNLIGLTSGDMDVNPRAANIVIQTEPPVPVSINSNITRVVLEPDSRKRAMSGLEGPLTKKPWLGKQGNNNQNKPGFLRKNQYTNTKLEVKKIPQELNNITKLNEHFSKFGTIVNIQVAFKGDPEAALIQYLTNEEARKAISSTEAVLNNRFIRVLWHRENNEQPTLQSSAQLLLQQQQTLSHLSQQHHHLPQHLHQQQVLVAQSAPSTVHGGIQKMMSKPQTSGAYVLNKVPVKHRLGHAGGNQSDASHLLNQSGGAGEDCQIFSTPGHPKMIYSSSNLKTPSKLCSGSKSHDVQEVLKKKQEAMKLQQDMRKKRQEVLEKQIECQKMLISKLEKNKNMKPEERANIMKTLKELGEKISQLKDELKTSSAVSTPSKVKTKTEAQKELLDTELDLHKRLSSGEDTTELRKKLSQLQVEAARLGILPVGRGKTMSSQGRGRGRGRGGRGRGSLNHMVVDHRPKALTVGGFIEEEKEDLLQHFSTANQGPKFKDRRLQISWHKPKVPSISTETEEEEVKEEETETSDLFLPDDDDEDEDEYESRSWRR
Description: as §3

[19] = target: MYH9 (Myosin-9) (Homo sapiens, UniProt P35579); test: LiP-Quant, membrane enriched HeLa eluate
Description: as §3

[20] = FKBP1A peptide LVFDVELLK, Decreasing
[21] = FKBP1A peptide VFDVELLK, Decreasing
[22] = FKBP1A peptide YTGMLEDGK, Decreasing

Sequence of PLEC (Plectin) (Q15149 whole entry): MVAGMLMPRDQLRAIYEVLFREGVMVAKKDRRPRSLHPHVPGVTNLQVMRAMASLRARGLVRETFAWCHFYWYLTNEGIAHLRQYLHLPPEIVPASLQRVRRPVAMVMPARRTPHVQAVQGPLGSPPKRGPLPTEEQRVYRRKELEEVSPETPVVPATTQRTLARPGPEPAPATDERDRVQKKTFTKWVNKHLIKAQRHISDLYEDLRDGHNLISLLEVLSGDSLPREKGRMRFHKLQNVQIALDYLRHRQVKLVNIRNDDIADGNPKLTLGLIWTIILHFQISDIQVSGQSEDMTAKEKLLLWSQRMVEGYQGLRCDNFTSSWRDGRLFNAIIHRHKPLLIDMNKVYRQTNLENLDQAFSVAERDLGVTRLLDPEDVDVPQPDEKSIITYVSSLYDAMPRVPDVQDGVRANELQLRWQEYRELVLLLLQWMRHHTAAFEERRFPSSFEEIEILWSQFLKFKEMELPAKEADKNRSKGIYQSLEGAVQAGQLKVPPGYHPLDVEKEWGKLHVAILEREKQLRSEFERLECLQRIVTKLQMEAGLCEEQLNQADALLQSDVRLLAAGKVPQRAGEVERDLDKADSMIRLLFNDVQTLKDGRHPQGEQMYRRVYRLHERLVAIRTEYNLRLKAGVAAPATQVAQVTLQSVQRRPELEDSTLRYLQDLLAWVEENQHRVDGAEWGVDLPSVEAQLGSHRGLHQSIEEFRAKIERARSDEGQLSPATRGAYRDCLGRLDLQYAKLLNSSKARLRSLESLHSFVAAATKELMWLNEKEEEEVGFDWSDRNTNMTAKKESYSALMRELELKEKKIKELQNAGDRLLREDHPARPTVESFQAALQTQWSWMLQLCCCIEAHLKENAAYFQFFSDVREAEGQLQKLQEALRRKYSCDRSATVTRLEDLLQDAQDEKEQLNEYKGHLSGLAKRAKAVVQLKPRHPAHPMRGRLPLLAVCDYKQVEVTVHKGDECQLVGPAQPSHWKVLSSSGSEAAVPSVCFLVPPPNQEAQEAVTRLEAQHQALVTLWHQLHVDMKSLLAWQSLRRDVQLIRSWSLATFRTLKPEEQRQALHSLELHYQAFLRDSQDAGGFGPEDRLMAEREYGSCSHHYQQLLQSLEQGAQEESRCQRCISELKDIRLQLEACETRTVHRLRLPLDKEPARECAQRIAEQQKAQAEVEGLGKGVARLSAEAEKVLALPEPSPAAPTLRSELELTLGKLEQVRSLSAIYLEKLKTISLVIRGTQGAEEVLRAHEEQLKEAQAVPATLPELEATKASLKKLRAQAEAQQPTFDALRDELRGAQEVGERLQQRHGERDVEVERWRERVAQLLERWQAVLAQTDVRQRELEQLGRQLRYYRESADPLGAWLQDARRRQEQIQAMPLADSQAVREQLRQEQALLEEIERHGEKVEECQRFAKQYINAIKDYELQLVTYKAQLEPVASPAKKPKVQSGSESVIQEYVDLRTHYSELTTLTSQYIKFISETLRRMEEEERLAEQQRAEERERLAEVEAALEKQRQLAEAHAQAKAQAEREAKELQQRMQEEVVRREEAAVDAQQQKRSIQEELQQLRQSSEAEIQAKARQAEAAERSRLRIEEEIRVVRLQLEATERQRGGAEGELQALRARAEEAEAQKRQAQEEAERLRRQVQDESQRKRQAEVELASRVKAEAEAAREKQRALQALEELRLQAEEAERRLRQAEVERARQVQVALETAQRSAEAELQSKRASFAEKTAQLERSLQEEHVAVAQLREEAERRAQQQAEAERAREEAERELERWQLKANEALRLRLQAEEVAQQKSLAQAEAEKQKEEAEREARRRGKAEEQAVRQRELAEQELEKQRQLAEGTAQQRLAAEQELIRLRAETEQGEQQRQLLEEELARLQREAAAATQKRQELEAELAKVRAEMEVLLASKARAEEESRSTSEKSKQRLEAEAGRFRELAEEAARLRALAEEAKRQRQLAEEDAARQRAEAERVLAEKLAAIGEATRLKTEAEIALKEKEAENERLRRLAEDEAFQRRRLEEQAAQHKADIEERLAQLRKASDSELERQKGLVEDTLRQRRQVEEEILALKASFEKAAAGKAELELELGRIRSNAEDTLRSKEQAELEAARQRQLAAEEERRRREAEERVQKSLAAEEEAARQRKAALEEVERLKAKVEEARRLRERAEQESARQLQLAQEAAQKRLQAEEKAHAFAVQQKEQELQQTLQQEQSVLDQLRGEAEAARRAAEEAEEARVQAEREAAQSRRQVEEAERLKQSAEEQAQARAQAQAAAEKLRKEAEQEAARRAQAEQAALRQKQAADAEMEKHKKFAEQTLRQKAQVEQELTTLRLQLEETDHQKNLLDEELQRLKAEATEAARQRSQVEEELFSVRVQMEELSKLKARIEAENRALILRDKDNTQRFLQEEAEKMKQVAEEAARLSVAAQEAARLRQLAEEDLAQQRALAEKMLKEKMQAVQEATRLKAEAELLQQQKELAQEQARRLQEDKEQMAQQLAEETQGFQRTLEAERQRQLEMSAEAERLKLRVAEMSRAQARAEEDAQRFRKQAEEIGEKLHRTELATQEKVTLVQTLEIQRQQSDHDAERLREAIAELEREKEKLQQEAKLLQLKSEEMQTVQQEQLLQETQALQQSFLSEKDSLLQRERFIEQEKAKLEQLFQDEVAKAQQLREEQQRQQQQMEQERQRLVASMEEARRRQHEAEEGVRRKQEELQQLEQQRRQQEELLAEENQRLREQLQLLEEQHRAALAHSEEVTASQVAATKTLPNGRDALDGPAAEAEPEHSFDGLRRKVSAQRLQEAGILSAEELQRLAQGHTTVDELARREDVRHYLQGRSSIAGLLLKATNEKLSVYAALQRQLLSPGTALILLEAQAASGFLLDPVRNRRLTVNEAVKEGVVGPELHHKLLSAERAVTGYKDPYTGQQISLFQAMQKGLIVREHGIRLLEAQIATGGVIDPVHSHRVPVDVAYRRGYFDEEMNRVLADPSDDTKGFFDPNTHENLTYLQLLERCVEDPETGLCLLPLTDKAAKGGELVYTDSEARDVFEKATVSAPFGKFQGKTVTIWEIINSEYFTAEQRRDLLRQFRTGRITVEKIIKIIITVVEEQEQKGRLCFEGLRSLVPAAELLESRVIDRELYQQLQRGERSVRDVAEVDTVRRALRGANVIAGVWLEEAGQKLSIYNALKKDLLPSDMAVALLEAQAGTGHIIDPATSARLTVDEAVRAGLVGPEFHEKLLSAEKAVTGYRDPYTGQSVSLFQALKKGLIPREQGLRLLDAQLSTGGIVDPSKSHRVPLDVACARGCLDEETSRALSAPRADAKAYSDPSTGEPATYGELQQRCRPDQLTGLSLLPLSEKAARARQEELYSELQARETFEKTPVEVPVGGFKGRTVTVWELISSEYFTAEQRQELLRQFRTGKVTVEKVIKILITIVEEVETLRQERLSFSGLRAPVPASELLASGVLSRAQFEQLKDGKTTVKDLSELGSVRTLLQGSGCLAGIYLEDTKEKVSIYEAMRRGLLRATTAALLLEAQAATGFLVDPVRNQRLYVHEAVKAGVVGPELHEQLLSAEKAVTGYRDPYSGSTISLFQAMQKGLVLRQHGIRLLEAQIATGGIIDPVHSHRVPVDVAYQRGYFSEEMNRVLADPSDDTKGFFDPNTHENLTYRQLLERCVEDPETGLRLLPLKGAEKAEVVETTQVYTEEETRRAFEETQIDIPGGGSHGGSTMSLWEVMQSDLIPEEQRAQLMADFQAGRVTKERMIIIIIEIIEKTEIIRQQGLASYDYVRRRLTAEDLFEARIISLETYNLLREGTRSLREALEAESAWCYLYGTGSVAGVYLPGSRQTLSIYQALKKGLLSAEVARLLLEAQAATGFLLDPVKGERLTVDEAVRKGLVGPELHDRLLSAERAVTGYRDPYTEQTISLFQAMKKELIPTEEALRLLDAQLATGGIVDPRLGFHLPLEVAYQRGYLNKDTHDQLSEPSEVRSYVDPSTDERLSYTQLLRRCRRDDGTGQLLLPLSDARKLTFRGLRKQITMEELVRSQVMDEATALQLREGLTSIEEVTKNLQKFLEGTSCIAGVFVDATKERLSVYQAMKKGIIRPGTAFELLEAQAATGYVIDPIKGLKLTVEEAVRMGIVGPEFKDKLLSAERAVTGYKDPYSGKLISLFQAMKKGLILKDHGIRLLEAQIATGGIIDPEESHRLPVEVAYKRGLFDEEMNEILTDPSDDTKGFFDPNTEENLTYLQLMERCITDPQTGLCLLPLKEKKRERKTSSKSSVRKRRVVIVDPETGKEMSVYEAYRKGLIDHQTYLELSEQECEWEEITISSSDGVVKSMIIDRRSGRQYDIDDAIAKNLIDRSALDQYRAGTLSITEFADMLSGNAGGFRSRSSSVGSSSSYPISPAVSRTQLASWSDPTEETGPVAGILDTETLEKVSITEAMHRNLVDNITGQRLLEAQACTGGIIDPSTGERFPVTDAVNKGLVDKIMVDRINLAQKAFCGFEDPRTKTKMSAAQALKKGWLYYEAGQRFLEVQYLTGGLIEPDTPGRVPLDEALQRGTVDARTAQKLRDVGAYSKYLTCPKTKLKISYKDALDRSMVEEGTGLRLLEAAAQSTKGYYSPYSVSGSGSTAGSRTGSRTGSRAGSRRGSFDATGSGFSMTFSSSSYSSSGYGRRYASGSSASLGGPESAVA
Sequence of FKBP1A (P62942 whole entry): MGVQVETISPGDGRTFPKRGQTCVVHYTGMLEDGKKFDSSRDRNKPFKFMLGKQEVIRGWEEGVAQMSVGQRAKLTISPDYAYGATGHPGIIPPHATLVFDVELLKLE
Sequence of PPP3CA (P63098 2-170, other chains not shown): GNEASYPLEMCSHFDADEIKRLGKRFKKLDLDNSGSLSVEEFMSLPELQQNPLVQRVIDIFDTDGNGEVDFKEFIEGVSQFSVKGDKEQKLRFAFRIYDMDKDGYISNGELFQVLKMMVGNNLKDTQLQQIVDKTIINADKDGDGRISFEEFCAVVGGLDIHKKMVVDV

COC[C@@H]([C@H](O)[C@H](O)C(=O)NCC[C@H](C)c1nc(/C=C/C[C@@H]2O[C@]3(C[C@@H](O)[C@@H]2C)O[C@H]([C@H](C[C@H](O)[C@H](C)[C@H](O)[C@H](C)/C=C(C)/C(C)=C/C=C/C(C)=C\C#N)OC)[C@H](OP(=O)(O)O)C3(C)C)co1)N(C)C [Calyculin A]
EC50 ([1]; HeLa lysate, 12 peptides, read-out: median EC50 across LiP-Quant peptides): 0.018 µM
LiP Score ([1]; peptide AHQLVMEGYNWCHDR, PPP2CA): 4.613
EC50 ([1]; peptide AHQLVMEGYNWCHDR, PPP2CA, read-out: EC50): 0.0114 µM
LiP Score ([1]; peptide NVVTIFSAPNYCYR, PPP2CA): 4.820
EC50 ([1]; peptide NVVTIFSAPNYCYR, PPP2CA, read-out: EC50): 0.0193 µM
LiP Score ([1]; peptide YSFLQFDPAPR, PPP2CA): 5.385
EC50 ([1]; peptide YSFLQFDPAPR, PPP2CA, read-out: EC50): 0.0182 µM
EC50 [2]: 0.063 µM
LiP Rank [3]: 196
LiP Score [3]: 1.364
LiP Rank [4]: 2187
LiP Score [4]: 0.782
EC50 ratio difference between PP2A and PP1 [5]: 3.5 fold

C=CC[C@@H]1/C=C(\C)C[C@H](C)C[C@H](OC)[C@H]2O[C@@](O)(C(=O)C(=O)N3CCCC[C@H]3C(=O)O[C@H](/C(C)=C/[C@@H]3CC[C@@H](O)[C@H](OC)C3)[C@H](C)[C@@H](O)CC1=O)[C@H](C)C[C@@H]2OC [FK506]
LiP Rank [6, 20]: 8
Score [6, 20]: 1.86
LiP Rank [6, 21]: 10
Score [6, 21]: 1.73
LiP Rank [6, 22]: 4
Score [6, 22]: 3.01
LiP Rank ([6]; FKBP1A peptide […], Decreasing): 11
Score ([6]; FKBP1A peptide […], Decreasing): 1.72
Score ([6]; FKBP1A peptide […], Increasing): 3.49
Score ([6]; FKBP1A peptide […], Increasing, Supplementary Data 4): 3.820

CO[C@H]1C[C@@H]2CC[C@@H](C)[C@@](O)(O2)C(=O)C(=O)N2CCCC[C@H]2C(=O)O[C@H]([C@H](C)C[C@@H]2CC[C@@H](O)[C@H](OC)C2)CC(=O)[C@H](C)/C=C(\C)[C@@H](O)[C@@H](OC)C(=O)[C@H](C)C[C@H](C)/C=C/C=C/C=C/1C [Rapamycin]
LiP-Quant score [7]: > 2.5
LiP-Quant score [8]: > 2.5
EC50 ([9]; FPR1 peptide _GWDVGIPK_): 144 nM
EC50 ([9]; FPR1 peptide _TGDLVTIH_): 619 nM
LiP Rank ([9]; FPR1 peptide _GSPFQCNIGVGQVIK_): 1
LiP Score ([9]; FPR1 peptide _GSPFQCNIGVGQVIK_): 3.228
LiP Rank ([9]; FPR1 peptide _GWDVGIPK_): 2
LiP Score ([9]; FPR1 peptide _GWDVGIPK_): 3.111
LiP Rank ([9]; FPR1 peptide _RISPGDGATFPK_): 4
LiP Score ([9]; FPR1 peptide _RISPGDGATFPK_): 2.974
LiP Rank ([9]; FPR1 peptide _TGDLVTIH_): 3

Cn1cnc2c(F)c(Nc3ccc(Br)cc3Cl)c(C(=O)NOCCO)cc21 [Selumetinib]
LIPscore ([10]; peptide VSIAVIK (selumetinib sheet) or best peptide of the protein (Supp Data 7)): 2.617
LIPRank ([10]; peptide VSIAVIK (selumetinib sheet) or protein level (Supp Data 7)): 3
DRC ([11]; dose-response correlation): 0.9991
LIPRank [11]: 1
LIPscore [11]: 3.316
DRC ([12]; dose-response correlation): 0.9666
LIPRank [12]: 2
LIPscore [12]: 3.07
DRC ([13]; dose-response correlation): 0.9974
LIPRank [13]: 4
LIPscore [13]: 2.585
DRC ([14]; dose-response correlation): 0.9996
LIPRank [14]: 5
LIPscore [14]: 2.504
EC50 [15]: 0.041 µM

C[C@@H]1O[C@@H](O[C@@H]2C=C3CC[C@@H]4[C@H](CC[C@]5(C)[C@@H](c6ccc(=O)oc6)CC[C@]45O)[C@@]3(C)CC2)[C@H](O)[C@H](O)[C@H]1O [proscillaridin A]
EC50 [16]: 0.0164 µM
DRC ([16]; peptide AVAGDASESALLK): 0.9716
LiP Rank ([16]; peptide AVAGDASESALLK): 1
LiP Score ([16]; peptide AVAGDASESALLK): 4.437
EC50 [17]: 0.0273 µM
DRC ([17]; peptide TILEDEKR): 0.9716
LiP Rank ([17]; peptide TILEDEKR): 2
LiP Score ([17]; peptide TILEDEKR): 4.346
EC50 [18]: 0.0173 µM
DRC ([18]; peptide LSSGEDTTELR): 0.9721
LiP Rank ([18]; peptide LSSGEDTTELR): 3
LiP Score ([18]; peptide LSSGEDTTELR): 4.331
EC50 [19]: 0.031 µM
DRC ([19]; peptide HSQAVEELAEQLEQTKR): 0.9583
LiP Rank ([19]; peptide HSQAVEELAEQLEQTKR): 4
LiP Score ([19]; peptide HSQAVEELAEQLEQTKR): 4.317
